Experiment [1] addresses Eis_Mtb acetyltransferase (Mycobacterium tuberculosis, UniProt P9WFK7). The experiment is classed as biochemical. The following applies: for Extent of Eis inhibition of HTS compounds (in words): follow-up description.
The target in a further experiment is AAC(2′)-Ic (Mycobacterium tuberculosis, UniProt P9WQG9). Description: Inhibitor selectivity, AAC.
The target in another experiment is AAC(6′)-Ie/APH(2″)-Ia (Staphylococcus aureus, UniProt P0A0C1). Description: Inhibitor selectivity, AAC. In kind it is biochemical. The following applies: concentrations as high as 200 μM.
Sequence of AAC(6′)-Ie/APH(2″)-Ia (P0A0C1 whole entry): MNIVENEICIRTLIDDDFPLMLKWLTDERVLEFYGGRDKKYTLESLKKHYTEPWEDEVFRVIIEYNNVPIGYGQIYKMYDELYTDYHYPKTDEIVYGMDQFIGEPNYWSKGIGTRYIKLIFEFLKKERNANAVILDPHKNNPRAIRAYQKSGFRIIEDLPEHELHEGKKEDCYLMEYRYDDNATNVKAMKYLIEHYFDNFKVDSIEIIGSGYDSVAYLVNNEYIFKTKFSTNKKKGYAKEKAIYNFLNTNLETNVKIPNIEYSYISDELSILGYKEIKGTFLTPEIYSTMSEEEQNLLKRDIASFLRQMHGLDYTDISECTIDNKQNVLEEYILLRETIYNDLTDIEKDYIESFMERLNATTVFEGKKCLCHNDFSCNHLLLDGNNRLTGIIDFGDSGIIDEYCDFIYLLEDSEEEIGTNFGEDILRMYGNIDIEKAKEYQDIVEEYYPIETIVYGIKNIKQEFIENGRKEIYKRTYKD

Sequence of Eis_Mtb acetyltransferase (P9WFK7 whole entry): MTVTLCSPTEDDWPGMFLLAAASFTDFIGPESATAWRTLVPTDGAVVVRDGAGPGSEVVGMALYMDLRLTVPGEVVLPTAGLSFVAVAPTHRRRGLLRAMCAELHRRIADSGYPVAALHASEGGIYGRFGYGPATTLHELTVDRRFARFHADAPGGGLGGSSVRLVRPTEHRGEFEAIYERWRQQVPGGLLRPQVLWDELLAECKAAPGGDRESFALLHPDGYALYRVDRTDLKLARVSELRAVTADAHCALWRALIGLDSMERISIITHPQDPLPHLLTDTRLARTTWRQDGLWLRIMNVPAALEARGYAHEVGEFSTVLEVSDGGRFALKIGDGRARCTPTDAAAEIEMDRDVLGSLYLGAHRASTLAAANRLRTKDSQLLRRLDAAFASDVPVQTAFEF
Sequence of AAC(2′)-Ic (P9WQG9 whole entry): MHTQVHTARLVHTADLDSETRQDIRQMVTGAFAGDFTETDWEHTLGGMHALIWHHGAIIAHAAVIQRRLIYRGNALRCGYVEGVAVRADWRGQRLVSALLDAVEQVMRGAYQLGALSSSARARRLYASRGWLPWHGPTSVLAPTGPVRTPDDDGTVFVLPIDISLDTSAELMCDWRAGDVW

Turning to `CN(c1ccc(Br)cc1)S(=O)(=O)c1ccc2[nH]c(=O)c(=O)[nH]c2c1` [Compound 29, N-(4-Bromophenyl)-N-methyl-2,3-dioxo-1,2,3,4-tetrahydro-6-quinoxalinesulfonamide], in experiment [1], the “Eis inhibition in the HTS (hit or not)” value is “hits”. In the case of `CN(c1ccc2ccccc2c1)S(=O)(=O)c1ccc2[nH]c(=O)c(=O)[nH]c2c1` [Compound 46, N-(2-Naphthyl)-N-methyl-2,3-dioxo-1,2,3,4-tetrahydro-6-quinoxalinesulfonamide], the “inhibition of acetylation by AAC(2′)-Ic (in words)” value against AAC(2′)-Ic is reported as “did not inhibit”. Moreover, the “inhibition of acetylation by AAC(6′)-Ie/APH(2″)-Ia (in words)” value against AAC(6′)-Ie/APH(2″)-Ia is recorded as “did not inhibit”. As to `O=c1[nH]c2ccc(S(=O)(=O)Nc3ccc(Cl)c(C(F)(F)F)c3)cc2[nH]c1=O` [Compound 3], the “Extent of Eis inhibition of HTS compounds (in words)” value in experiment [1] is “modest Eis inhibition”. For `Cc1cc(NS(=O)(=O)c2ccc3[nH]c(=O)c(=O)[nH]c3c2)ccc1Br` [Compound 1], the “Extent of Eis inhibition of HTS compounds (in words)” value in experiment [1] is listed as “modest Eis inhibition”. Same read-out and setting: the same measure for `O=c1[nH]c2ccc(S(=O)(=O)Nc3ccc4c(c3)OCCO4)cc2[nH]c1=O` [Compound 4]: “modest Eis inhibition”. With `COc1cccc(N(C)S(=O)(=O)c2ccc3[nH]c(=O)c(=O)[nH]c3c2)c1` [Compound 39, N-(3-Methoxyphenyl)-N-methyl-2,3-dioxo-1,2,3,4-tetrahydro-6-quinoxalinesulfonamide], the “inhibition of acetylation by AAC(6′)-Ie/APH(2″)-Ia (in words)” value against AAC(6′)-Ie/APH(2″)-Ia was “did not inhibit”.
